Assay results as given in ChEMBL document CHEMBL1201862, “PubChem BioAssay data set” (2004).
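All cell lines were grown in 96-well plates and treated with compound for 48 hours. Abbreviation: GI50, concentration required for 50% inhibition of growth.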 Active and inactive are the calls of the source. Cut-off read from the data, not from the text of the source: active = GI50 up to about 1.1 µM and inactive = higher.

Assays:
Experiment in all cases: inhibition of tumour cell growth, NCI panel, 48 h
[1] = system: EKVX
[2] = system: OVCAR-4
[3] = system: SNB-75
[4] = system: SK-MEL-2
[5] = system: OVCAR-8
[6] = system: T47D
[7] = system: K562
[8] = system: LOX IMVI
[9] = system: ACHN
[10] = system: RXF 393
[11] = system: NCI/ADR-RES
[12] = system: UACC-62
[13] = system: HL-60
[14] = system: Hs-578T
[15] = system: HCT-116
[16] = system: SF-268
[17] = system: M14
[18] = system: HCT-15
[19] = system: CCRF-CEM
[20] = system: RPMI-8226

| Compound | GI50 [1] | GI50 [2] | GI50 [3] | GI50 [4] | GI50 [5] | GI50 [6] | GI50 [7] | GI50 [8] | GI50 [9] | GI50 [10] | GI50 [11] | GI50 [12] | GI50 [13] | GI50 [14] | GI50 [15] | GI50 [16] | GI50 [17] | GI50 [18] [µM] | GI50 [19] | GI50 [20] |
| --- | --- | --- | --- | --- | --- | --- | --- | --- | --- | --- | --- | --- | --- | --- | --- | --- | --- | --- | --- | --- |
| Cc1cc(S(=O)(=O)NC2=NCCCN2)c(S)cc1Cl | 38.9 µM (inactive) | 16.8 µM (inactive) | 42.3 µM (inactive) | 12.4 µM (inactive) | 24.3 µM (inactive) | 25.2 µM (inactive) | 22.8 µM (inactive) | 22.1 µM (inactive) | 33.8 µM (inactive) | 66.2 µM (inactive) | > 100 µM (inactive) | 27.9 µM (inactive) | 22.1 µM (inactive) | 24.5 µM (inactive) | 31.8 µM (inactive) | 87.1 µM (inactive) | 29.6 µM (inactive) | 43.6 |  |  |
| CCOC(=O)CC1(O)CCCCC1(Sc1ccc(C)cc1)Sc1ccc(C)cc1 (stereo unspecified) | 26.9 µM (inactive) | 47.8 µM (inactive) | 27.5 µM (inactive) | 20.5 µM (inactive) | 56.1 µM (inactive) | 19.4 µM (inactive) | 41.5 µM (inactive) | 36.8 µM (inactive) | 51.5 µM (inactive) | 42.4 µM (inactive) | 65.9 µM (inactive) | 92 µM (inactive) | 24.7 µM (inactive) | 25.4 µM (inactive) | 33.9 µM (inactive) | 31.7 µM (inactive) | 41.4 µM (inactive) | 34.4 | 4.76 µM (inactive) |  |
| CC(=N/N=C/c1ccccn1)/C(C)=N/N=C(C)/C(C)=N/N=C(C)/C(C)=N/N=C(C)/C(C)=N\N=C\c1ccccn1 | > 100 µM (inactive) | > 100 µM (inactive) | > 100 µM (inactive) | > 100 µM (inactive) | > 100 µM (inactive) | > 100 µM (inactive) | > 100 µM (inactive) | > 100 µM (inactive) | > 100 µM (inactive) | > 100 µM (inactive) | > 100 µM (inactive) |  | 49.1 µM (inactive) | > 100 µM (inactive) | > 100 µM (inactive) | > 100 µM (inactive) | > 100 µM (inactive) | > 100 |  | > 100 µM (inactive) |
| O=C1NCN(c2ccccc2)C12CCN(CCCN1CCN(CCOC(c3ccc(F)cc3)c3ccc(F)cc3)CC1)CC2 | 2.88 µM (inactive) | 2.92 µM (inactive) |  | 1.96 µM (inactive) | 2.15 µM (inactive) | 1.58 µM (inactive) | 0.91 µM (active) | 1.86 µM (inactive) | 1.99 µM (inactive) | 1.04 µM (active) | 11 µM (inactive) | 2.05 µM (inactive) | 1.48 µM (inactive) | 2.06 µM (inactive) | 1.7 µM (inactive) | 1.87 µM (inactive) | 1.88 µM (inactive) | 2.23 | 3.31 µM (inactive) | 2.04 µM (inactive) |
| CSc1nncc2[nH]cnc12 | > 100 µM (inactive) |  | > 100 µM (inactive) | > 100 µM (inactive) | > 100 µM (inactive) | > 100 µM (inactive) | > 100 µM (inactive) |  | > 100 µM (inactive) | > 100 µM (inactive) | > 100 µM (inactive) | > 100 µM (inactive) | > 100 µM (inactive) | > 100 µM (inactive) | > 100 µM (inactive) | > 100 µM (inactive) | > 100 µM (inactive) | > 100 | > 100 µM (inactive) | > 100 µM (inactive) |
| CSc1cc(-c2cccs2)sc1-c1cc(SC)c(-c2sc(-c3sc(-c4cccs4)cc3SC)cc2SC)s1 | > 100 µM (inactive) | > 100 µM (inactive) |  | > 100 µM (inactive) | > 100 µM (inactive) | > 100 µM (inactive) | > 100 µM (inactive) | > 100 µM (inactive) | > 100 µM (inactive) | > 100 µM (inactive) | > 100 µM (inactive) | > 100 µM (inactive) | > 100 µM (inactive) | > 100 µM (inactive) | > 100 µM (inactive) | > 100 µM (inactive) | > 100 µM (inactive) | > 100 | > 100 µM (inactive) | > 100 µM (inactive) |
| NCCC1(N)CCNCC1 | > 100 µM (inactive) | > 100 µM (inactive) | 13.7 µM (inactive) | > 100 µM (inactive) | > 100 µM (inactive) | > 100 µM (inactive) | > 100 µM (inactive) |  | > 100 µM (inactive) | > 100 µM (inactive) | > 100 µM (inactive) | > 100 µM (inactive) | > 100 µM (inactive) | > 100 µM (inactive) | > 100 µM (inactive) | > 100 µM (inactive) | > 100 µM (inactive) | > 100 | > 100 µM (inactive) | > 100 µM (inactive) |
| CC(=O)OCCCCn1cc(Cn2ccc(=O)n(Cc3cn(CCCCOC(C)=O)nn3)c2=O)nn1 | > 100 µM (inactive) | > 100 µM (inactive) | > 100 µM (inactive) | > 100 µM (inactive) | > 100 µM (inactive) | > 100 µM (inactive) |  | > 100 µM (inactive) | > 100 µM (inactive) | > 100 µM (inactive) | > 100 µM (inactive) | > 100 µM (inactive) |  | > 100 µM (inactive) | > 100 µM (inactive) | > 100 µM (inactive) | > 100 µM (inactive) | > 100 | > 100 µM (inactive) | > 100 µM (inactive) |
| O=C(N/N=C/c1ccc2c(c1)OCO2)Nc1ccccc1Cl | 8.07 µM (inactive) | 10 µM (inactive) |  | 0.556 µM (active) | 2.56 µM (inactive) | 2.08 µM (inactive) | 0.327 µM (active) | 2.95 µM (inactive) | 7.43 µM (inactive) | 1.57 µM (inactive) | 0.335 µM (active) | 0.762 µM (active) | 0.565 µM (active) | 1.66 µM (inactive) | 0.861 µM (active) | 3.76 µM (inactive) | 0.671 µM (active) | 0.418 | 1.13 µM (inactive) | 1.48 µM (inactive) |
| O=C(/C=C1\Sc2ccccc2N=C1CC(=O)c1ccccc1)c1ccccc1 | 6.17 µM (inactive) | 4.99 µM (inactive) |  | 17.3 µM (inactive) | 3.67 µM (inactive) | 6.98 µM (inactive) | 3.79 µM (inactive) | 3 µM (inactive) | 4.39 µM (inactive) | 26.5 µM (inactive) | 4.02 µM (inactive) |  | 4.89 µM (inactive) | 44.7 µM (inactive) | 4.9 µM (inactive) | 6.4 µM (inactive) | 6.14 µM (inactive) | 2.65 | 2.36 µM (inactive) | 4.65 µM (inactive) |
| O=c1ccn2n1CCCCC2 | > 100 µM (inactive) | > 100 µM (inactive) |  | > 100 µM (inactive) | > 100 µM (inactive) | 58.2 µM (inactive) | > 100 µM (inactive) | > 100 µM (inactive) | > 100 µM (inactive) | > 100 µM (inactive) | > 100 µM (inactive) | > 100 µM (inactive) | > 100 µM (inactive) | > 100 µM (inactive) | > 100 µM (inactive) | > 100 µM (inactive) | > 100 µM (inactive) | > 100 | > 100 µM (inactive) | > 100 µM (inactive) |
| COC(=O)c1c(O)ccc2c1c1c(n2Cc2cccc(C)c2)C(=O)c2ccccc2C1=O | 19.5 µM (inactive) | 6.46 µM (inactive) |  | 12.6 µM (inactive) | 7.31 µM (inactive) | 1.94 µM (inactive) | 8.91 µM (inactive) | 11.7 µM (inactive) | 11.2 µM (inactive) | 10.7 µM (inactive) | 9.42 µM (inactive) |  | 16.6 µM (inactive) | 12.4 µM (inactive) | 6.97 µM (inactive) | 12 µM (inactive) | 15 µM (inactive) | 8.05 | 4.86 µM (inactive) | 3.72 µM (inactive) |
| CC(=O)C(O)N1C(=O)C=CC1=O (stereo unspecified) | 6.5 µM (inactive) |  | 6.24 µM (inactive) | 17.5 µM (inactive) | 6.22 µM (inactive) | > 25 µM (inactive) | > 25 µM (inactive) | 4.43 µM (inactive) | 2.61 µM (inactive) | 2.13 µM (inactive) | 13.2 µM (inactive) | 16.8 µM (inactive) | 1.74 µM (inactive) | 7.38 µM (inactive) | 5.61 µM (inactive) | 7.05 µM (inactive) | 4.23 µM (inactive) | 1.84 |  | 2.26 µM (inactive) |
| O=[N+]([O-])c1ccc(S(=O)(=O)n2c3ccc(Br)cc3c3nc4ccccc4nc32)cc1 |  | > 100 µM (inactive) | 77.6 µM (inactive) | > 100 µM (inactive) | > 100 µM (inactive) | > 100 µM (inactive) | 70.8 µM (inactive) | > 100 µM (inactive) | > 100 µM (inactive) | > 100 µM (inactive) | > 100 µM (inactive) | > 100 µM (inactive) |  | 53.6 µM (inactive) | > 100 µM (inactive) | > 100 µM (inactive) | > 100 µM (inactive) | > 100 | 20.7 µM (inactive) | > 100 µM (inactive) |
| C1CSCCCSCCCSCCCSCCCSCCCSCCCSCCCSC1 | > 100 µM (inactive) | > 100 µM (inactive) |  | > 100 µM (inactive) | > 100 µM (inactive) | > 100 µM (inactive) | > 100 µM (inactive) | > 100 µM (inactive) | > 100 µM (inactive) | > 100 µM (inactive) | > 100 µM (inactive) |  | > 100 µM (inactive) | > 100 µM (inactive) | > 100 µM (inactive) | > 100 µM (inactive) | > 100 µM (inactive) | > 100 | > 100 µM (inactive) | > 100 µM (inactive) |
